Measurements from patent US12448394B2, “Heterocyclic pyrazole derivatives as type III receptor tyrosine kinase inhibitors” (DEVELOPMENT CENTER FOR BIOTECHNOLOGY, priority 2019, dated 2025).

Tests used:
FLT3 kinase = target: T1, FLT3 kinase (Homo sapiens, UniProt P36888); test: FLT3 kinase assay (AlphaScreen); assay type: biochemical; settings: read-out: Ranking of IC50 values, FLT3
T1 construct: purchased SignalChem
T1 sequence (P36888 27-993): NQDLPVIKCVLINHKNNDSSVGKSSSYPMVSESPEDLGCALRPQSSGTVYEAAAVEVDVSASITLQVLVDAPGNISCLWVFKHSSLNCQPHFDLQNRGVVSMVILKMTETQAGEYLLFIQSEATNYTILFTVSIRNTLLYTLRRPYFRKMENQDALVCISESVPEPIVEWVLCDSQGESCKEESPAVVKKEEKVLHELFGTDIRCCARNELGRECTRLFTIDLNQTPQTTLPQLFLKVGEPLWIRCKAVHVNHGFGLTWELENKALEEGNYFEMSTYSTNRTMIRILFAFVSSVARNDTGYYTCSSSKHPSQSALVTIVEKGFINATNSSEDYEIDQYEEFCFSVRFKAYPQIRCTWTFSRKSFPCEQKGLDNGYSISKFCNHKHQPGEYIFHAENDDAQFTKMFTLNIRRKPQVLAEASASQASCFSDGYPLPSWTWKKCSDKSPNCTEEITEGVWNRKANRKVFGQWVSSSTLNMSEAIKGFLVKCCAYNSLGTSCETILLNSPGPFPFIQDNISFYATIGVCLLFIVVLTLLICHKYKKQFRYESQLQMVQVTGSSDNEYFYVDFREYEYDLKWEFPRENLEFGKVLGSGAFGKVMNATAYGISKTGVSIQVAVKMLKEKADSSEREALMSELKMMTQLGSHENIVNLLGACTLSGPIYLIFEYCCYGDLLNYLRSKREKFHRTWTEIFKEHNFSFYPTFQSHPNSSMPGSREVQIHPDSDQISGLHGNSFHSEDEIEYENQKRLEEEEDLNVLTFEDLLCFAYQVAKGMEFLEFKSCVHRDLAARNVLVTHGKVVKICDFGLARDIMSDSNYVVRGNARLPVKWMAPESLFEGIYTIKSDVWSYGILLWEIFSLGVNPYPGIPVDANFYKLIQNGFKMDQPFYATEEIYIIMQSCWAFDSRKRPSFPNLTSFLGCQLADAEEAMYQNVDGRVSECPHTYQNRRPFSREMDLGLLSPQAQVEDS
Procedure, shortened: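 AlphaScreen detection of biotin-poly(Glu4:Tyr1) phosphorylation by 1.5 ng recombinant FLT3 (10 μM ATP, pH 7.0 MOPS, 10 mM MgCl2; 30 °C, 30 min, EDTA quench). IC50 values derived from serially diluted compound tested in duplicate.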

[1] = tested on: HCC827 NSCLC cell with EGFR exon 19 deletion mutation; test: HCC827 cell proliferation assay (counter screen); assay type: cell-based, human; settings: Homo sapiens, HCC827 cells, 72 hours treatment, CellTiter96, read-out: anti-proliferation activity HCC827 EGFR Exon19 del, IC50 ranking
Procedure, shortened: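 HCC827 cells (EGFR exon 19 deletion) were seeded at 8000 cells/well in RPMI1640 with 10% FBS, then exposed to increasing compound concentrations for 72 h at 37 °C. Viability was read by CellTiter96 AQueous One (MTS), absorbance 490 nm after 2–4 h.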

IC50 (FLT3 kinase) [µM]	Structure (SMILES)	IC50 [1] [µM]
< 0.001	Cn1ncc2ccc(-c3n[nH]c4c3Cc3sc(-c5ccc(OCCN6CCOCC6)cc5)cc3-4)cc21 [Compound 69, 4-(2-(4-(3-(1-methyl-1H-indazol-6-yl)-1,4-dihydro-thieno[2′,3′:4,5]cyclopenta [1,2-c]pyrazol-6-yl)phenoxy)ethyl)morpholine]	> 10
0.001 to 0.01	Cn1ncc2ccc(-c3n[nH]c4c3Cc3sc(-c5cccc(OCCN6CCOCC6)c5)cc3-4)cc21 [Compound 70, 4-(2-(3-(3-(1-methyl-1H-indazol-6-yl)-1,4-dihydro-thieno[2′,3′:4,5]cyclopenta [1,2-c]pyrazol-6-yl)phenoxy)ethyl)morpholine]	> 10
0.001 to 0.01	Cn1ncc2ccc(-c3n[nH]c4c3Cc3sc(C#CCN5CCOCC5)cc3-4)cc21 [Compound 71, 4-(3-(3-(1-methyl-1H-indazol-6-yl)-1,4-dihydro-thieno[2′,3′:4,5]cyclopenta [1,2-c]pyrazol-6-yl)prop-2-yn-1-yl)morpholine]	> 10
0.001 to 0.01	Cn1ncc2ccc(-c3n[nH]c4c3Cc3sc(-c5ccc(NC6CCOCC6)cc5)cc3-4)cc21 [Compound 72, N-(4-(3-(1-methyl-1H-indazol-6-yl)-1,4-dihydro-thieno[2′,3′:4,5]cyclopenta [1,2-c]pyrazol-6-yl)phenyl)tetrahydro-2H-pyran-4-amine]	> 10
0.001 to 0.01	CN(c1ccc(-c2cc3c(s2)Cc2c(-c4ccc5cnn(C)c5c4)n[nH]c2-3)cc1)C1CCOCC1 [Compound 73, N-methyl-N-(4-(3-(1-methyl-1H-indazol-6-yl)-1,4-dihydrothieno [2′,3′:4,5]cyclopenta [1,2-c]pyrazol-6-yl)phenyl)tetrahydro-2H-pyran-4-amine]	> 10
< 0.001	C[C@@H]1COCCN1Cc1ccc(-c2cc3c(s2)Cc2c(-c4ccc5cnn(C)c5c4)n[nH]c2-3)cc1 [Compound 74, (R)-3-methyl-4-(4-(3-(1-methyl-1H-indazol-6-yl)-1,4-dihydrothieno [2′,3′:4,5]cyclopenta [1,2-c]pyrazol-6-yl)benzyl)morpholine]	> 10
< 0.001	C[C@H]1COCCN1Cc1ccc(-c2cc3c(s2)Cc2c(-c4ccc5cnn(C)c5c4)n[nH]c2-3)cc1 [Compound 75, (S)-3-methyl-4-(4-(3-(1-methyl-1H-indazol-6-yl)-1,4-dihydrothieno [2′,3′:4,5]cyclopenta [1,2-c]pyrazol-6-yl)benzyl)morpholine]	> 10
0.001 to 0.01	Cn1ncc2ccc(-c3n[nH]c4c3Cc3sc(-c5ccc(C=C6CCOCC6)cc5)cc3-4)cc21 [Compound 76, 3-(1-methyl-1H-indazol-6-yl)-6-(4-((tetrahydro-4H-pyran-4-ylidene)methyl)phenyl)-1,4-dihydrothieno[2′,3′:4,5] cyclopenta[1,2-c]pyrazole]	> 10
0.001 to 0.01	Cn1ncc2ccc(-c3n[nH]c4c3Cc3sc(-c5ccc(CC6CCOCC6)cc5)cc3-4)cc21 [Compound 77, 3-(1-methyl-1H-indazol-6-yl)-6-(4-((tetrahydro-2H-pyran-4-yl)methyl)phenyl)-1,4-dihydrothieno [2′,3′:4,5]cyclopenta [1,2-c]pyrazole]	> 10
< 0.001	Cn1ncc2ccc(-c3n[nH]c4c3Cc3sc(N5CCOCC5)cc3-4)cc21 [Compound 78, 4-(3-(1-methyl-1H-indazol-6-yl)-1,4-dihydro-thieno[2′,3′:4,5]cyclopenta [1,2-c]pyrazol-6-yl) morpholine]	> 10
< 0.001	Cn1ncc2ccc(-c3n[nH]c4c3Cc3sc(N5CCOCC5=O)cc3-4)cc21 [Compound 79, 4-(3-(1-methyl-1H-indazol-6-yl)-1,4-dihydro-thieno[2′,3′:4,5]cyclopenta [1,2-c]pyrazol-6-yl) morpholin-3-one]	1 to 10
